Reference: patent US20200360331A1, “COMPOSITIONS COMPRISING 15-HEPE AND/OR 15-HETrE AND METHODS OF TREATING OR PREVENTING CARDIOMETABOLIC DISEASE, METABOLIC SYNDROME, AND/OR RELATED DISEASES” (Afimmune Limited, priority 2019, published 2020)
“Also recorded” adds a separate entry of the source.

Key:
TIMP-1 = experiment: BDL study: quantitative RT-PCR of liver, TIMP-1; type: in vivo, C57BL/6J mice; details: BDL mice liver
Experimental: (§1) Quantitative RT-PCR: Total ribonucleic acid (RNA) was extracted from liver samples using RNAiso (Takara Bio, Japan) according to the manufacturer's instructions. One μg of RNA was reverse-transcribed using a reaction mixture containing 4.4 mM magnesium chloride (MgCl2) (F. Hoffmann-La Roche, Switzerland), 40 U RNase inhibitor (Toyobo, Japan), 0.5 mM dNTP (Promega, USA), 6.28 μM random hexamer (Promega), 5× first strand buffer (Promega), 10 mM dithiothreitol (Invitrogen, USA) and 200 U MMLV-RT (Invitrogen) in a final volume of 20 μL. The reaction was carried out for 1 hour at 37° C., followed by 5 minutes at 99° C. Real-time PCR was performed using real-time PCR DICE and TB Green™ Premix Ex Taq™ II (Takara Bio). To calculate the relative mRNA expression level, the expression of each gene (α-SMA, TIMP-1, TGF-β and Collagen Type 1) was normalized to that of reference gene 36B4 (gene symbol: Rplp0). Information regarding the PCR-primer sets and the plate layout are described in Tables 8 and 9.

UUO mice = experiment: UUO study: Sirius red staining of kidney sections, fibrosis area; type: in vivo, C57BL/6 mice; details: for fibrosis area compared with the Vehicle group: Mann-Whitney U test (p<0.1); for Sirius red-positive area / Sirius red-positive area (%) _Median: kidney
Experimental: UUO Surgery: On day 0 of the study, UUO surgery was performed on mice under pentobarbital sodium anesthesia. The mouse's hair was first shaved and then abdomen cut open to exteriorize the mouse's left ureter. The ureter was ligated 4-0 nylon sutures at two points. The mouse's peritoneum and skin were then closed with sutures, and the mouse transferred to a clean cage until recovered from the anesthesia. Sham operated mice had their left ureter exposed but not ligated.
Histopathological analysis: To visualize collagen deposition, kidney sections were stained using picro-Sirius red solution (Waldeck, Germany). For quantification of interstitial fibrosis area, bright field images in the corticomedullary region were captured using a digital camera (e.g., DFC295; Leica Microsystems, Germany) at 200-fold magnification, and the positive areas in 5 fields/section were measured using ImageJ software (National Institute of Health, USA).

TGF-β = experiment: UUO study: quantitative RT-PCR of kidney, TGF-β; type: in vivo, C57BL/6 mice; details: UUO mice kidney
Experimental: as §1, with “from kidney” for “from liver”, “[…] (mM) of” for “4.4 mM”, “relative […] (mRNA)” for “relative mRNA”, “gene (e.g., α-SMA,” for “gene (α-SMA,”, “Tables 1” for “Tables 8”, “and 2.” for “and 9.”

NAFLD patients [1] = experiment: Phase IIa NAFLD study: OWL Liver Care diagnostic test for NASH; type: in vivo, human
Text: The study was planned to include 96 evaluable patients with 32 patients randomized per treatment group.
OWL Liver Care is a test that was developed based on the plasma lipidomics in biopsy-confirmed NASH patients and provides high predictive values. OWL Liver Care has an area under the curve (AUC) of 0.88 for distinguishing NAFLD and normal liver patients and an AUC of 0.79 for distinguishing NAFLD without steatohepatitis and NASH patients.

NAFLD patients [2] = experiment: Phase IIa NAFLD study: proteomics of blood samples; type: in vivo, human
Text: The study was planned to include 96 evaluable patients with 32 patients randomized per treatment group. […] Exploratory analysis: The exploratory analysis included analysis of lipid and metabolic parameters including total cholesterol, triglycerides, very low-density lipoprotein cholesterol (VLDL-C), low density lipoprotein cholesterol (LDL-C), high density lipoprotein cholesterol (HDL-C), non-high-density lipoprotein cholesterol (non-HDL-C), remnant-like particle cholesterol (RLP-C), fasting glucose, insulin, free fatty acids and hemoglobin A1C (HbA1C). Additional exploratory analysis included high throughput lipidomics and proteomics.

[3] = relative mRNA normalized to 36B4, 50 mg/kg PO QD Day 0-13
[4] = relative mRNA normalized to 36B4, 500 mg/kg PO QD Day 0-13
[5] = 1 g per day, baseline diagnosis NASH
[6] = 1 g per day, baseline diagnosis No NAFLD
[7] = 1 g per day, baseline diagnosis Steatosis
[8] = 2 g per day, baseline diagnosis NASH
[9] = 2 g per day, baseline diagnosis No NAFLD
[10] = 2 g per day, baseline diagnosis Steatosis

For `CC/C=C\CC(O)/C=C/C=C\C/C=C\C/C=C\CCCC(=O)O` (centres unmarked) [DS102, 15-hydroxy-eicosa-5Z,8Z,11Z,13E,17Z-pentaenoic acid], the “TIMP-1 mRNA expression level compared with the Vehicle group” value (TIMP-1; 500 mg/kg) was “tended to decrease; also recorded: trend approaching significance”, the “TIMP-1 mRNA expression level vs Vehicle group” value (TIMP-1; DS102 treatment groups) was “no significant differences” and the TIMP-1 gene expression (TIMP-1; [3]) was 43.82 ± 26.19. The TIMP-1 gene expression (TIMP-1; relative mRNA normalized to 36B4, 250 mg/kg PO QD Day 0-13) was 30.65 ± 16.80, the TIMP-1 gene expression (TIMP-1; [4]) was 16.09 ± 10.16 and the “fibrosis area compared with the Vehicle group” value (UUO mice; 50 mg/kg) was “tended to decrease; also recorded: reduction trend”. For the same compound, the “fibrosis area compared with the Vehicle group” value (UUO mice; 500 mg/kg) was “tended to decrease; also recorded: reduction trend”, the Sirius red-positive area (UUO mice; 50 mg/kg PO QD Day 0-13, Day 14) was 5.01 ± 3.11% and the “Sirius red-positive area (%) _Median” value (UUO mice; 50 mg/kg PO QD Day 0-13, Day 14, median) was 4.19 ± 3.33%. For the same compound, the Sirius red-positive area (UUO mice; 500 mg/kg PO QD Day 0-13, Day 14) was 4.01 ± 1.92%, the “Sirius red-positive area (%) _Median” value (UUO mice; 500 mg/kg PO QD Day 0-13, Day 14, median) was 3.08 ± 1.16% and the TGF-β gene expression (TGF-β; [3]) was 4.31 ± 0.69. For the same compound, the TGF-β gene expression (TGF-β; [4]) was 5.37 ± 0.76, the “OWL test change in diagnosis (Week 16 vs. baseline): Improvement, patients” value (“OWL test change … Improvement, patients” below) (NAFLD patients [1]; [5]) was 5 and the “OWL test change in diagnosis (Week 16 vs. baseline): Stable, patients” value (“OWL test change in diagnosis … Stable, patients” for short) (NAFLD patients [1]; [5]) was 14. The “OWL test change in diagnosis … Stable, patients” value (NAFLD patients [1]; [6]) was 3, the “OWL test change in diagnosis (Week 16 vs. baseline): Worsening, patients” value (shortened to “OWL test change … Worsening, patients”) (NAFLD patients [1]; [6]) was 1 and the “OWL test change in diagnosis … Stable, patients” value (NAFLD patients [1]; [7]) was 2. For the same compound, the “OWL test change … Worsening, patients” value (NAFLD patients [1]; [7]) was 3, the “OWL test change … Improvement, patients” value (NAFLD patients [1]; [8]) was 5 and the “OWL test change in diagnosis … Stable, patients” value (NAFLD patients [1]; [8]) was 7. For the same compound, the “OWL test change in diagnosis … Stable, patients” value (NAFLD patients [1]; [9]) was 2*, **, the “OWL test change … Worsening, patients” value (NAFLD patients [1]; [9]) was 1 and the “OWL test change … Improvement, patients” value (NAFLD patients [1]; [10]) was 1. The “OWL test change in diagnosis … Stable, patients” value (NAFLD patients [1]; [10]) was 9, the “OWL test change … Worsening, patients” value (NAFLD patients [1]; [10]) was 4 and the “OWL liver care diagnosed NASH” value (NAFLD patients [1]; Week 16, dose dependent, compared to placebo) was “significantly improved and normalized”. The TR protein (NAFLD patients [2]; 1 g) was “significant reductions”, the “NASH drug development targets CCR2/5 signaling, Galectin3, AOC3” value (NAFLD patients [2]; 2 g) was “decreased” and the “number of markers (inflammation, fibrosis, lipid metabolism, apoptosis, chemotaxis) significantly downregulated” value (NAFLD patients [2]; 2 g, panel of greater than 350 protein biomarkers) was “over 150”. The “inflammatory and pro-fibrotic proteins (protein expression)” value (NAFLD patients [2]; 2 g, Bonferroni: PAI-1, TIMP-1, DPP4, TLT2, CCL16, MCP-1, SAA4, PI3/Elafin, TR, LILRB1, TNRSF11A, linear model: TLT2, AOC3, PRSS2) was “decreased”, the “expression of multiple circulating chemokines” value (NAFLD patients [2]; NAFLD patients) was “decreased” and the “expression of multiple proteins associated with increased cardiovascular risk” value (NAFLD patients [2]; NAFLD patients) was “decreased”. The “expression of multiple tumor necrosis factor receptor superfamily members” value (NAFLD patients [2]; NAFLD patients) was “decreased” and the “expression of multiple vascular adhesion molecules” value (NAFLD patients [2]; NAFLD patients) was “decreased”.
